Test results taken from patent US20070259875A1, “Triaryl substituted imidazole derivatives and taste-inhibiting uses thereof” (priority 2006, published 2007).

How the values were obtained:
human TRPM5 = target: T1, human TRPM5 (Homo sapiens, UniProt Q9NZQ8); assay: FLIPR membrane potential dye screening assay, ATP-stimulated, TRPM5-transfected HEK293 cells; type: cell-based; details: maximum percent inhibition at concentrations between 10 μM and 100 μM; HEK293 cells with human TRPM5; 10 μM ATP; versus negative control wells
T1 construct: expressed in transfected cells
T1 sequence (Q9NZQ8 1-1165): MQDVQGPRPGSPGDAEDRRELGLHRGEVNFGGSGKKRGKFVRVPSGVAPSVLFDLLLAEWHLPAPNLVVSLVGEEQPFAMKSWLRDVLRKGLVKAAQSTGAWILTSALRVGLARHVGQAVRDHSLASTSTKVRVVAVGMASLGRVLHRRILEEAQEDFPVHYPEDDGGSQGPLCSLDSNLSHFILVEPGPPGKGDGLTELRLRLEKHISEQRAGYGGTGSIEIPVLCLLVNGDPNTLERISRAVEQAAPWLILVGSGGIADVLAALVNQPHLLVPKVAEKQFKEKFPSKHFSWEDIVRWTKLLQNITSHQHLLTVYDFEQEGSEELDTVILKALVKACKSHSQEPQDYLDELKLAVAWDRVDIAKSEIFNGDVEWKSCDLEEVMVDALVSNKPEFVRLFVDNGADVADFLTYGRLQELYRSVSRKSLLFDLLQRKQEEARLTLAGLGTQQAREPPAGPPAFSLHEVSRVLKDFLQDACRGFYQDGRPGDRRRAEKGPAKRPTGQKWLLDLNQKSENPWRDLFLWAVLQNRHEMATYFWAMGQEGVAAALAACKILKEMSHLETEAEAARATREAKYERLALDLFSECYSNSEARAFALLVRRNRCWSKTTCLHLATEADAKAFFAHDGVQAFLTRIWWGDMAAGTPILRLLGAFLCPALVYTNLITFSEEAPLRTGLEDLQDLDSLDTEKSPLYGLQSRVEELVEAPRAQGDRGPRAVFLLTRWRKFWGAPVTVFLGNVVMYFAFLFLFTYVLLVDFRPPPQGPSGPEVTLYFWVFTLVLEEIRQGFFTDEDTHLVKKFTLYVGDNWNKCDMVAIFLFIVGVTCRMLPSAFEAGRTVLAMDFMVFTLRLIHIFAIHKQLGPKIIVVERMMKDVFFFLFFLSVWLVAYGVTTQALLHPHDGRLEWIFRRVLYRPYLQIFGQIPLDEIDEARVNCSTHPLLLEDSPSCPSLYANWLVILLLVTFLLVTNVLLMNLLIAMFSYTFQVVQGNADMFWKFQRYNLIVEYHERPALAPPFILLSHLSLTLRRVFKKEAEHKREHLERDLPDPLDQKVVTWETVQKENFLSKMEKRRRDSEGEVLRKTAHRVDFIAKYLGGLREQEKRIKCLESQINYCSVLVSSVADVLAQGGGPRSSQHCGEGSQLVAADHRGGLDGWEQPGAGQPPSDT
Experimental: Modulation of the activity of human taste receptor proteins was measured in live cells on a fluorescent imaging plate reader (FLIPR). The basis of the assay (shown in FIG. 1) is the calcium-dependent activation of the ion channel which occurs via by activation of a G-protein coupled receptor (GPCR). GPCR activation by an appropriate agonist causes a transient increase in intercellular Ca^2+ ion concentration which in turn causes the ion channel to open, allowing an influx of Na^+ ions. This influx leads to a change in the membrane potential of the cell, which can be monitored as a change in the fluorescent signal from voltage-dependent (membrane potential) fluorescent dyes.
A schematic representation of the assay is shown in FIGS. 2(A) and 2(B), where traces of fluorescent response versus time are shown for cells transfected with a plasmid encoding human TRPM5 or cells containing sham plasmid controls.
For the screening assay, the human TRPM5 gene was cloned, HEK293 cells were transfected with a plasmid containing the gene, and a stable, high expression clone was chosen for the screen. Cells were grown in standard media at 37° C. The day before screening, the cells were removed from flasks and added to 384 well clear bottom plates (12K cells in 20 μL/well). On the assay day, 20 μL of membrane potential dye (Part No. R8123, Molecular Devices Corp.) was added to the cells and dye was allowed to be taken up, i.e., loaded, into the cells for 1 hr at 37° C. […] The assay was started by addition of 10 μL of solution from the compound plate into the cell plate. During this process, continuous fluorescent recordings were made simultaneously for all wells. After addition of the compound solution, the tips were automatically washed and 10 μL of a stimulation solution of 60 μM ATP (an agonist for an endogenous purinurgic GPCR), was added to all wells of the cell plate (to give a final concentration of 10 μM ATP). The height of the response was calculated and percent inhibition values, versus negative control wells, was calculated for the test samples.
(§1) Unless otherwise indicated, the data in Table 1 were determined using the assays described above, providing maximum percent inhibition data at concentrations between 10 μM and 100 μM.

[1] = test system: GPCR-mediated calcium activation step; assay: Calcium counterscreen (calcium sensitive dye, ATP stimulation, same cells); type: cell-based; details: maximum percent inhibition at concentrations between 10 μM and 100 μM, Calcium3 dye
Experimental: Two counterscreen assays were run on separate cell plates utilizing the same cells as described above. In the calcium counterscreen, the cells were loaded with a calcium sensitive dye (Calcium3 Dye, Part no. 8090, Molecular Devices Corp.) and stimulated by ATP to check for compounds that block the GPCR-mediated calcium activation step. In the KCl counterscreen, cells were stimulated with 120 mM KCl (to give a final concentration of 20 mM KCl) instead of ATP to check for compounds that inhibit the membrane potential response by virtue of being non-specific ion channel blockers.
as §1

SMILES	TRPM5 Activity (maximum percent inhibition) (human TRPM5) [%]	melting point [°C]	Calcium Counterscreen (maximum percent inhibition) [1] [%]
COC(=O)c1ccc(-c2nc(-c3ccccc3)c(-c3ccccc3)[nH]2)cc1 [Example 1, methyl4-(4,5-diphenyl-1H-imidazol-2-yl)benzoate]	79	–	0
OCc1ccc(-c2nc(-c3ccccc3)c(-c3ccccc3)[nH]2)cc1 [Example 2, [4-(4,5-diphenyl-1H-imidazol-2-yl)phenyl]methanol]	50	50	0
Nc1ccc(-c2nc(-c3ccccc3)c(-c3ccccc3)[nH]2)cc1 [Example 3, 4-(4,5-diphenyl-1H-imidazol-2-yl)aniline]	42	–	0
Oc1ccc(-c2nc(-c3ccccc3)c(-c3ccccc3)[nH]2)cc1 [Example 4, 4-(4,5-diphenyl-1H-imidazol-2-yl)phenol]	51	–	0
COC(=O)Nc1ccc(-c2nc(-c3ccccc3)c(-c3ccccc3)[nH]2)cc1 [Example 5, methyl4-(4,5-diphenyl-1H-imidazol-2-yl)phenylcarbamate]	19	–	0

Now from value to compound, other results behind:

TRPM5 Activity (maximum percent inhibition) (human TRPM5) [%]	melting point [°C]	SMILES	Calcium Counterscreen (maximum percent inhibition) [1] [%]
29	–	CC(=O)Nc1ccc(-c2nc(-c3ccccc3)c(-c3ccccc3)[nH]2)cc1 [Example 6, N-[4-(4,5-diphenyl-1H-imidazol-2-yl)phenyl]acetamide]	0
0	–	N#Cc1ccc(-c2nc(-c3ccccc3)c(-c3ccccc3)[nH]2)cc1 [Example 7, 4-(4,5-diphenyl-1H-imidazol-2-yl)benzonitrile]	0
90	–	CS(=O)(=O)NCc1ccc(-c2nc(-c3ccccc3)c(-c3ccccc3)[nH]2)cc1 [Example 8, N-[4-(4,5-diphenyl-1H-imidazol-2-yl)benzyl]methanesulfonamide]	0
60	–	O=C(O)c1ccc(-c2nc(-c3ccccc3)c(-c3ccccc3)[nH]2)cc1 [Example 9, 4-(4,5-diphenyl-1H-imidazol-2-yl)benzoic acid]	0
100	–	O=[N+]([O-])c1ccc(-c2nc(-c3ccccc3)c(-c3ccccc3)[nH]2)cc1 [Example 10, 2-(4-nitro-phenyl)-4,5-diphenyl-1H-imidazole]	0
